Test results taken from patent USRE49517E1, “Pyrazoles” (Janssen Pharmaceuticals, Inc., priority 2014, dated 2023).

Molecular target: human ERG receptor (Homo sapiens (Human), UniProt Q12809)
Experiment: HERGBD: inhibition of specific [3H]-Dofetilide binding to the hERG receptor
Settings: HEK cell membranes
Procedure: Inhibition of Specific Binding to the hERG—Receptor (HERGBD)
A HEK cell line with stable transfected human ERG receptor was used for the assay. The cells were grown adherently and maintained in DULBECCOS' MEM medium with 10% FBS, 1% non-essential amino acids, 1% Penicillin/Streptomycin and 400 μg/ml G418 (Calbiochem).
For binding assays and membrane preparations the cell culture medium was removed, cells were washed with PBS. Crude membranes for radioligand binding experiments were prepared by scraping the cells off the dishes in ice cold 20 mM HEPES/0.1 mM KCl/pH 7.2. […]
Binding was terminated by filtration of the incubated membrane preparations using Filtermat B (Pharmacia, Uppsala Sweden) and a Micro Cell Harvester (Skatron, Lier, Norway). The Filtermat B had been presoaked with 1% polyethylen imine and carefully washed with 0.05 M Tris/HCl-buffer pH=7.7 after the filtration to separate free and bound radioactivity. The filters were counted in a scintillation counter (Betaplate 1205, Berthold, Wildbad, Germany) in order to determine the specific binding of [^3H]-Dofetilide.
The optimal amount of membrane preparation in the assay was determined and optimized for each membrane preparation separately in front of using the membranes in compound testing. […]

Sequence of human ERG receptor (Q12809 whole entry): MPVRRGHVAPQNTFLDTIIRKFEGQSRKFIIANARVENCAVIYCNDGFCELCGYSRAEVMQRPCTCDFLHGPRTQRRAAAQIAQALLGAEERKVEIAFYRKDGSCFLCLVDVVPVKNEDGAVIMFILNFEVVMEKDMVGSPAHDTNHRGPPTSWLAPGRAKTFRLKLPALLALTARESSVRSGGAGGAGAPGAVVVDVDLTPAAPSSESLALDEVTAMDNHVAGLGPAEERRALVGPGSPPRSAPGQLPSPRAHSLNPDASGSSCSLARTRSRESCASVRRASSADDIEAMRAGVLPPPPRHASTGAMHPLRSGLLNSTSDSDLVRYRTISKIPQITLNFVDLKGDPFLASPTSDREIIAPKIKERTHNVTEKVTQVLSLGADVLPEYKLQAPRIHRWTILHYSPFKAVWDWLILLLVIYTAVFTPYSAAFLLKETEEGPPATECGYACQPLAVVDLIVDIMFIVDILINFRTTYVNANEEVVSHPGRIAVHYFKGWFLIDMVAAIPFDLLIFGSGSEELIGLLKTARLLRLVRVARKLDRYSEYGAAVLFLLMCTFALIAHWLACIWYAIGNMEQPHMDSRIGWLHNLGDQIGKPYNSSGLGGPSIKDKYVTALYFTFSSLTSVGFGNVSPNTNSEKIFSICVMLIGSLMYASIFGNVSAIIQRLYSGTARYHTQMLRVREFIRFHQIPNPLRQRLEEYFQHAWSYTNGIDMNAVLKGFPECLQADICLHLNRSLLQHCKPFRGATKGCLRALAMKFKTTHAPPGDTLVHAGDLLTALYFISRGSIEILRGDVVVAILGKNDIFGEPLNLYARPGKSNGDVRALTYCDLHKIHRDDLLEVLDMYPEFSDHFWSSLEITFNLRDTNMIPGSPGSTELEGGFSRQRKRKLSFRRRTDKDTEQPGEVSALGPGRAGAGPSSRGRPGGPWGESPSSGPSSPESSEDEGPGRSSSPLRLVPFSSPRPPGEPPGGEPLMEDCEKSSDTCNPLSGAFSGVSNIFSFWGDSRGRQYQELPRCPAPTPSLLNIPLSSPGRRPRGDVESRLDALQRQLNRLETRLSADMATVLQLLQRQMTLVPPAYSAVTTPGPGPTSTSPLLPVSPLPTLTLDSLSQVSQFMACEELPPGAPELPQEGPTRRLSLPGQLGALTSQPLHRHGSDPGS

SMILES	IC50
Cc1cc(Cn2cc(-c3ccc(C(F)(F)F)cc3)cn2)n(C)n1 [Example 51, 1,3-Dimethyl-5-[[4-[4-(trifluoromethyl)phenyl]pyrazol-1-yl]methyl]-Pyrazole]	137 µM
Cn1ccc(Cn2cc(-c3cccc(C(F)(F)F)c3)cn2)n1 [Example 49, 1-methyl-3-[[4-[3-(trifluoromethyl)phenyl]pyrazol-1-yl]methyl]pyrazole]	19 µM
